Reference: PubChem BioAssay AID330 (DTP/NCI, 2004)
Values joined by “and” are separate entries in the source; they are usually repeats but may differ in a detail not shown here. Equal values may be shown once. Toxic doses and inconclusive results are not listed. Rule for the calls: active = survival T/C of 150% or more; inactive = T/C below 125% in these data.

Test system: P388 leukemia ip, CD2F1 mice, survival T/C
Assay: NCI In Vivo Anticancer Drug Screen. Data for tumor model P388 Leukemia (intraperitoneal) in CD2F1 (CDF1) mice
Conditions: endpoint: median survival time, higher = longer survival
How it was run: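 Mice carrying the transplanted tumor received test compound or vehicle. Survival was recorded in each group, and the value is the treated-group measurement divided by that of the vehicle-treated control group.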

[1] = dose: 50.0 mg/kg/injection, schedule: Q01DX005 (ip), vehicle: saline with Tween-80
[2] = dose: 100.0 mg/kg/injection, schedule: Q01DX005 (ip), vehicle: saline with Tween-80
[3] = dose: 200.0 mg/kg/injection, schedule: Q01DX005 (ip), vehicle: saline with Tween-80
[4] = dose: 50.0 mg/kg/injection, schedule: Q01DX005 (ip), vehicle: Klucel (hydroxypropylcellulose) (HPC)
[5] = dose: 100.0 mg/kg/injection, schedule: Q01DX005 (ip), vehicle: Klucel (hydroxypropylcellulose) (HPC)
[6] = dose: 50.0 mg/kg/injection, schedule: Q01DX009 (ip), vehicle: saline with Tween-80
[7] = dose: 100.0 mg/kg/injection, schedule: Q01DX009 (ip), vehicle: saline with Tween-80
[8] = dose: 60.0 mg/kg/injection, schedule: Q01DX005 (ip), vehicle: saline with Tween-80
[9] = dose: 120.0 mg/kg/injection, schedule: Q01DX005 (ip), vehicle: saline with Tween-80
[10] = dose: 50.0 mg/kg/injection, schedule: Q01DX009 (ip), vehicle: saline
[11] = dose: 100.0 mg/kg/injection, schedule: Q01DX009 (ip), vehicle: saline
[12] = dose: 200.0 mg/kg/injection, schedule: Q01DX009 (ip), vehicle: saline
[13] = dose: 200.0 mg/kg/injection, schedule: Q01DX009 (ip), vehicle: saline with Tween-80
[14] = dose: 200.0 mg/kg/injection, schedule: Q01DX005 (ip), vehicle: Klucel (hydroxypropylcellulose) (HPC)
[15] = dose: 25.0 mg/kg/injection, schedule: Q01DX009 (ip), vehicle: saline with Tween-80
[16] = dose: 240.0 mg/kg/injection, schedule: Q01DX005 (ip), vehicle: saline with Tween-80

Measured: T/C

N#CC1=C(Nc2ccccc2Cl)SC2(CCCC2)NC1=O
inactive: dose: 60.0 mg/kg/injection, schedule: Q01DX005 (ip), vehicle: Klucel (hydroxypropylcellulose) (HPC) 100 % of control | dose: 120.0 mg/kg/injection, schedule: Q01DX005 (ip), vehicle: Klucel (hydroxypropylcellulose) (HPC) 100 % of control | dose: 240.0 mg/kg/injection, schedule: Q01DX005 (ip), vehicle: Klucel (hydroxypropylcellulose) (HPC) 92 % of control

CC1CN(C(=O)c2ccccc2)CC/C1=N\O (stereo not drawn)
inactive: [1] 97 % of control | [2] 93 % of control | [3] 101 % of control

O=S(=O)(Nc1ccccn1)c1ccc(N=Cc2c3ccccc3nc3cc(Cl)ccc23)cc1
inactive: [1] 91 % of control | [2] 88 % of control

CC(C)NC1CCC(Nc2ccnc3cc(Cl)ccc23)CC1 (stereo not drawn)
inactive: [4] 98 % of control | [5] 97 % of control

O=C1CC2(O)CSc3nc(=O)cc(n32)N1 (stereo not drawn)
inactive: dose: 50.0 mg/kg/injection, schedule: Q01DX005 (ip), vehicle: saline 107 % of control | dose: 100.0 mg/kg/injection, schedule: Q01DX005 (ip), vehicle: saline 106 % of control | dose: 200.0 mg/kg/injection, schedule: Q01DX005 (ip), vehicle: saline 94 % of control

Cc1nc2c(cc1[N+](=O)[O-])C(=O)NCCN2
inactive: dose: 25.0 mg/kg/injection, schedule: Q04DX003 (ip), vehicle: Klucel (hydroxypropylcellulose) (HPC) 91 % of control | dose: 50.0 mg/kg/injection, schedule: Q04DX003 (ip), vehicle: Klucel (hydroxypropylcellulose) (HPC) 100 % of control | dose: 100.0 mg/kg/injection, schedule: Q04DX003 (ip), vehicle: Klucel (hydroxypropylcellulose) (HPC) 96 % of control

Cc1c(Cl)cccc1NC(=O)c1cccc([N+](=O)[O-])c1O
inactive: [6] 102 % of control | [7] 93 % of control

O=C1Nc2ccccc2/C1=c1/sc2nc3ccccc3n2c1=O
inactive: dose: 200.0 mg/kg/injection, schedule: Q01DX001 (ip), vehicle: Klucel (hydroxypropylcellulose) (HPC) 89 % of control | dose: 400.0 mg/kg/injection, schedule: Q01DX001 (ip), vehicle: Klucel (hydroxypropylcellulose) (HPC) 89 % of control

CCCC(=O)c1cc(-c2cc(C(=O)CCC)nc(N)n2)nc(N)n1
inactive: [8] 99 % of control | [9] 107 % of control

C=C(C)C(=O)Nc1ccc(-n2[nH]c(C)c(N=Nc3ccc(N(C)C)cc3)c2=O)cc1
inactive: [1] 98 % of control | [2] 96 % of control | [3] 100 % of control

O=C(NC1CCCCC1)Oc1ccc[nH]c1=O
inactive: dose: 25.0 mg/kg/injection, schedule: Q01DX009 (ip), vehicle: saline 92 % of control and 93 % of control | dose: 25.0 mg/kg/injection, schedule: Q01DX009 (sc), vehicle: saline with Tween-80 101 % of control and 109 % of control | [10] 102 % of control and 104 % of control | dose: 50.0 mg/kg/injection, schedule: Q01DX009 (sc), vehicle: saline with Tween-80 106 % of control and 107 % of control | [11] 105 % of control and 98 % of control | dose: 100.0 mg/kg/injection, schedule: Q01DX009 (sc), vehicle: saline with Tween-80 102 % of control and 117 % of control | [12] 102 % of control and 105 % of control | dose: 200.0 mg/kg/injection, schedule: Q01DX009 (sc), vehicle: saline with Tween-80 108 % of control and 111 % of control | dose: 400.0 mg/kg/injection, schedule: Q01DX009 (ip), vehicle: saline 116 % of control and 118 % of control | dose: 400.0 mg/kg/injection, schedule: Q01DX009 (sc), vehicle: saline with Tween-80 104 % of control and 107 % of control | dose: 600.0 mg/kg/injection, schedule: Q01DX009 (sc), vehicle: saline with Tween-80 102 % of control and 113 % of control

Cc1ccc(S(=O)(=O)OCCC(C)(C)C)cc1
inactive: [6] 106 % of control | [7] 107 % of control | [13] 111 % of control

CC(C)CC([NH-])C(=O)O.CC(C)CC([NH-])C(=O)O.CC(C)CC([NH-])C(=O)O.[Pr+3] (stereo not drawn)
inactive: [4] 107 % of control | [5] 102 % of control | [14] 98 % of control

C/C(=C/c1cc(Br)c2c(c1)OCO2)[N+](=O)[O-]
inactive: dose: 100.0 mg/kg/injection, schedule: Q01DX001 (ip), vehicle: saline with Tween-80 110 % of control | dose: 200.0 mg/kg/injection, schedule: Q01DX001 (ip), vehicle: saline with Tween-80 100 % of control | dose: 400.0 mg/kg/injection, schedule: Q01DX001 (ip), vehicle: saline with Tween-80 99 % of control

CC(C)CCc1cc(O)c(CCC(C)C)cc1O
inactive: dose: 6.25 mg/kg/injection, schedule: Q01DX009 (ip), vehicle: saline with Tween-80 88 % of control | [15] 109 % of control | [6] 108 % of control | [7] 114 % of control

Cc1nc(Nc2ccccc2)c2c(C)c(C)[nH]c2n1
inactive: [8] 103 % of control | [9] 102 % of control | [16] 98 % of control

CCOC(=O)N1N=C(c2ccccc2)OC2(N3CCCC3)CCC(C(C)(C)C)CC12 (stereo not drawn)
inactive: [4] 89 % of control | [5] 96 % of control | [14] 96 % of control

CN1CC(=O)NC2C=CN(Cc3c(Cl)cccc3Cl)C=C2C1=O (stereo not drawn)
inactive: [8] 89 % of control and 90 % of control | [9] 88 % of control | [16] 87 % of control and 90 % of control

O=C1NC(=O)C2C1C(C(=O)O)C1C3C(=O)NC(=O)C3C1C2C(=O)O (stereo not drawn)
inactive: [15] 91 % of control | [6] 94 % of control | [7] 97 % of control | [13] 91 % of control and 92 % of control | dose: 400.0 mg/kg/injection, schedule: Q01DX009 (ip), vehicle: saline with Tween-80 96 % of control

O=C(NCCF)Oc1ccc([N+](=O)[O-])cc1
inactive: dose: 6.25 mg/kg/injection, schedule: Q01DX005 (ip), vehicle: Klucel (hydroxypropylcellulose) (HPC) 106 % of control | dose: 12.5 mg/kg/injection, schedule: Q01DX005 (ip), vehicle: Klucel (hydroxypropylcellulose) (HPC) 113 % of control and 115 % of control | dose: 25.0 mg/kg/injection, schedule: Q01DX005 (ip), vehicle: Klucel (hydroxypropylcellulose) (HPC) 121 % of control and 122 % of control

C=C1C(=O)OC(CCCCCCCCCCCCCC(C)=O)[C@H]1C(=O)O (stereo partly drawn)
inactive: dose: 5.0 mg/kg/injection, schedule: Q01DX005 (ip), vehicle: Klucel (hydroxypropylcellulose) (HPC) 93 % of control | dose: 5.0 mg/kg/injection, schedule: Q01DX005 (ip), vehicle: saline 93 % of control | dose: 10.0 mg/kg/injection, schedule: Q01DX005 (ip), vehicle: Klucel (hydroxypropylcellulose) (HPC) 90 % of control | dose: 10.0 mg/kg/injection, schedule: Q01DX005 (ip), vehicle: saline 91 % of control | dose: 20.0 mg/kg/injection, schedule: Q01DX005 (ip), vehicle: Klucel (hydroxypropylcellulose) (HPC) 110 % of control and 90 % of control and 107 % of control | dose: 20.0 mg/kg/injection, schedule: Q01DX005 (ip), vehicle: saline 96 % of control | dose: 40.0 mg/kg/injection, schedule: Q01DX005 (ip), vehicle: Klucel (hydroxypropylcellulose) (HPC) 105 % of control and 98 % of control | dose: 80.0 mg/kg/injection, schedule: Q01DX005 (ip), vehicle: Klucel (hydroxypropylcellulose) (HPC) 107 % of control

CC1CCCC(C)N1C1=NCCO1 (stereo not drawn)
inactive: dose: 5.0 mg/kg/injection, schedule: Q04DX003 (ip), vehicle: saline 95 % of control | dose: 10.0 mg/kg/injection, schedule: Q04DX003 (ip), vehicle: saline 100 % of control | dose: 20.0 mg/kg/injection, schedule: Q04DX003 (ip), vehicle: saline 95 % of control

O=[N+]([O-])c1ccc2c(ccn2C2OCC(O)C(O)C2O)c1 (stereo not drawn)
inactive: [6] 94 % of control | [7] 108 % of control | [13] 106 % of control

CC(C(=O)c1ccc(Cl)cc1)c1ccccc1 (stereo not drawn)
inactive: [10] 96 % of control | [11] 105 % of control | [12] 99 % of control
